Laboratory results taken from patent US20230172885A1, “THIOL-CONTAINING COMPOUNDS FOR USE IN TREATING CORONAVIRUS” (priority 2020, published 2023).

Molecular target: RBD^N501Y binding to ACE2 (Severe acute respiratory syndrome coronavirus 2, UniProt P0DTC2, N501Y)
Design: species or system SARS-CoV-2

Compound: O[C@@H]1[C@@H](O)[C@@H](O[C@H]2O[C@H](CS)[C@@H](O)[C@H](O)[C@H]2O)O[C@H](CS)[C@H]1O [MUC-31, 6,6′-dithiotrehalose]
- inhibition of binding of RBD^N501Y to ACE2: potently inhibited

Compound: NCCS [Cysteamine]
- inhibition of binding of RBD^N501Y to ACE2: potently inhibited
